In PubChem BioAssay AID256 (DTP/NCI, 2004):
“And” between values parts separate entries of the source, which are not always exact repeats. Identical values can stand only once. Inconclusive results and toxic doses are left out. Rule for the calls: active = survival T/C of 150% or more; inactive = T/C below 125% in these data.

Tested on: CD2F1 mice, L1210 leukemia ip, survival T/C
Test: NCI In Vivo Anticancer Drug Screen. Data for tumor model L1210 Leukemia (intraperitoneal) in CD2F1 (CDF1) mice
Settings: endpoint: mean survival time, higher = longer survival
Method in brief: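 Mice carrying a transplanted tumor received test compound or vehicle alone. The value is the measurement in the treated group divided by that in the vehicle-treated control group.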

[1] = dose: 25.0 mg/kg/injection, schedule: Q01DX009 (ip), vehicle: saline with Tween-80
[2] = dose: 50.0 mg/kg/injection, schedule: Q01DX009 (ip), vehicle: saline
[3] = dose: 100.0 mg/kg/injection, schedule: Q04DX003 (ip), vehicle: saline
[4] = dose: 200.0 mg/kg/injection, schedule: Q04DX003 (ip), vehicle: saline
[5] = dose: 100.0 mg/kg/injection, schedule: Q01DX001 (ip), vehicle: saline with Tween-80
[6] = dose: 200.0 mg/kg/injection, schedule: Q01DX001 (ip), vehicle: saline with Tween-80
[7] = dose: 50.0 mg/kg/injection, schedule: Q04DX002 (ip), vehicle: saline
[8] = dose: 100.0 mg/kg/injection, schedule: Q04DX002 (ip), vehicle: saline
[9] = dose: 200.0 mg/kg/injection, schedule: Q04DX002 (ip), vehicle: saline
[10] = dose: 100.0 mg/kg/injection, schedule: Q01DX009 (ip), vehicle: saline
[11] = dose: 400.0 mg/kg/injection, schedule: Q04DX003 (ip), vehicle: saline
[12] = dose: 75.0 mg/kg/injection, schedule: Q01DX001 (ip), vehicle: saline
[13] = dose: 150.0 mg/kg/injection, schedule: Q01DX001 (ip), vehicle: saline
[14] = dose: 300.0 mg/kg/injection, schedule: Q01DX001 (ip), vehicle: saline
[15] = dose: 50.0 mg/kg/injection, schedule: Q01DX009 (ip), vehicle: saline with Tween-80
[16] = dose: 100.0 mg/kg/injection, schedule: Q01DX009 (ip), vehicle: saline with Tween-80
[17] = dose: 200.0 mg/kg/injection, schedule: Q01DX009 (ip), vehicle: saline with Tween-80
[18] = dose: 100.0 mg/kg/injection, schedule: Q04DX003 (ip), vehicle: saline with Tween-80
[19] = dose: 200.0 mg/kg/injection, schedule: Q04DX003 (ip), vehicle: saline with Tween-80
[20] = dose: 6.25 mg/kg/injection, schedule: Q01DX005 (ip), vehicle: water
[21] = dose: 12.5 mg/kg/injection, schedule: Q01DX005 (ip), vehicle: water
[22] = dose: 25.0 mg/kg/injection, schedule: Q01DX005 (ip), vehicle: water
[23] = dose: 50.0 mg/kg/injection, schedule: Q01DX005 (ip), vehicle: water

Measured: T/C

COc1cc2cc[n+]3c(C)c4cc5c(cc4cc3c2cc1OC)OCO5 (tested in a mixture with another compound)
inactive: [1] 120 % of control | dose: 37.5 mg/kg/injection, schedule: Q01DX009 (ip), vehicle: saline with Tween-80 94 % of control | dose: 37.5 mg/kg/injection, schedule: Q01DX009 (ip), vehicle: saline 108 % of control | [2] 106 % of control | [3] 121 % of control | [4] 93 % of control

O=C1C(Br)=CC2C1C1C=CC2(Br)C1=O (stereo not given)
inactive: dose: 50.0 mg/kg/injection, schedule: Q01DX001 (ip), vehicle: saline with Tween-80 109 % of control | [5] 103 % of control | [6] 101 % of control

O=S(=O)(O)c1ccc(/C2=c3\cc/c([n-]3)=C(\c3ccc(S(=O)(=O)O)cc3)c3ccc([n-]3)/C(c3ccc(S(=O)(=O)O)cc3)=c3/cc/c([n-]3)=C(\c3ccc(S(=O)(=O)O)cc3)c3ccc2[n-]3)cc1.[Co]
inactive: [7] 104 % of control | [8] 101 % of control | [9] 101 % of control

FC(F)(F)COP1(OCC(F)(F)F)=NP(OCC(F)(F)F)(OCC(F)(F)F)=NP(OCC(F)(F)F)(OCC(F)(F)F)=NP(OCC(F)(F)F)(OCC(F)(F)F)=N1
inactive: [2] 100 % of control | [10] 100 % of control | [3] 97 % of control | dose: 200.0 mg/kg/injection, schedule: Q01DX009 (ip), vehicle: saline 97 % of control | [4] 97 % of control | [11] 105 % of control

CCOC(=O)/C(C#N)=C1/C=CCCC1
inactive: [12] 97 % of control | [13] 104 % of control | [14] 97 % of control

CCCCCCCCCCCC(=O)N(CCCC)CCCC
inactive: [8] 103 % of control | [9] 103 % of control | dose: 400.0 mg/kg/injection, schedule: Q04DX002 (ip), vehicle: saline 106 % of control

O=C(O)C1C(C(=O)O)C(C(=O)O)C1C(=O)O (stereo not given)
inactive: [15] 109 % of control | [16] 95 % of control | [17] 108 % of control

Brc1cn[nH]c1Br
inactive: [18] 98 % of control | [19] 104 % of control | dose: 400.0 mg/kg/injection, schedule: Q04DX003 (ip), vehicle: saline with Tween-80 88 % of control

O=C(O)C/[N+]([O-])=N\O
inactive: [3] 96 % of control | [4] 102 % of control | [11] 105 % of control

O=[N+]([O-])c1ccc(CSC2=NCCN2)cc1
inactive: [10] 106 % of control

COc1ccc(C(=O)c2no[n+]([O-])c2C(=O)c2ccc(OC)cc2)cc1
inactive: dose: 12.5 mg/kg/injection, schedule: Q01DX009 (ip), vehicle: saline with Tween-80 100 % of control | [1] 97 % of control | [15] 101 % of control | [16] 97 % of control and 98 % of control | [17] 98 % of control and 102 % of control | dose: 400.0 mg/kg/injection, schedule: Q01DX009 (ip), vehicle: saline with Tween-80 97 % of control and 110 % of control

N#CC(=C1SCS1)[N+](=O)[O-]
inactive: dose: 0.37 mg/kg/injection, schedule: Q01DX009 (ip), vehicle: saline with Tween-80 101 % of control and 102 % of control | dose: 0.75 mg/kg/injection, schedule: Q01DX009 (ip), vehicle: saline with Tween-80 101 % of control | dose: 1.5 mg/kg/injection, schedule: Q01DX009 (ip), vehicle: saline with Tween-80 100 % of control and 102 % of control | dose: 3.0 mg/kg/injection, schedule: Q01DX009 (ip), vehicle: saline with Tween-80 102 % of control and 104 % of control | dose: 6.0 mg/kg/injection, schedule: Q01DX009 (ip), vehicle: saline with Tween-80 108 % of control | dose: 12.0 mg/kg/injection, schedule: Q01DX009 (ip), vehicle: saline with Tween-80 106 % of control

Cc1cnnc(N(C)N)c1
inactive: dose: 12.5 mg/kg/injection, schedule: Q04DX002 (ip), vehicle: saline 107 % of control | dose: 25.0 mg/kg/injection, schedule: Q04DX002 (ip), vehicle: saline 114 % of control | [7] 96 % of control

[N-]=[N+]=NCc1cn(C2CC(O)C(CO)O2)c(=O)[nH]c1=O (stereo not given)
inactive: [20] 91 % of control | [21] 111 % of control | [22] 103 % of control | [23] 100 % of control

CCCC[NH-].CCCC[NH-].O=C(O)CC(=O)O.[Pt+2]
inactive: dose: 6.25 mg/kg/injection, schedule: Q04DX003 (ip), vehicle: saline with Tween-80 96 % of control | dose: 25.0 mg/kg/injection, schedule: Q04DX003 (ip), vehicle: saline with Tween-80 96 % of control | [18] 98 % of control

NC(=O)CC=O
inactive: [12] 98 % of control | [13] 93 % of control | [14] 95 % of control

NCc1cccc([N+](=O)[O-])c1
inactive: [3] 106 % of control | [4] 109 % of control | [11] 98 % of control

C=COCCSCC
inactive: dose: 50.0 mg/kg/injection, schedule: Q04DX003 (ip), vehicle: saline 98 % of control | dose: 100.0 mg/kg/injection, schedule: Q01DX001 (ip), vehicle: saline 98 % of control | [3] 98 % of control | dose: 200.0 mg/kg/injection, schedule: Q01DX001 (ip), vehicle: saline 97 % of control | [4] 104 % of control | dose: 400.0 mg/kg/injection, schedule: Q01DX001 (ip), vehicle: saline 101 % of control

Cc1nc(N)[nH]c(=O)c1NC(=O)c1ccccc1N
inactive: [5] 94 % of control | [6] 87 % of control | dose: 400.0 mg/kg/injection, schedule: Q01DX001 (ip), vehicle: saline with Tween-80 89 % of control

Cc1ccccc1OCCO
inactive: dose: 50.0 mg/kg/injection, schedule: Q01DX009 (ip), vehicle: other 100 % of control | dose: 100.0 mg/kg/injection, schedule: Q01DX009 (ip), vehicle: other 116 % of control and 100 % of control | dose: 200.0 mg/kg/injection, schedule: Q01DX009 (ip), vehicle: other 102 % of control and 103 % of control | dose: 400.0 mg/kg/injection, schedule: Q01DX009 (ip), vehicle: other 100 % of control

O=C(COc1ccc(F)cc1)OCCO
inactive: dose: 100.0 mg/kg/injection, schedule: Q04DX002 (ip), vehicle: saline with Tween-80 105 % of control | dose: 200.0 mg/kg/injection, schedule: Q04DX002 (ip), vehicle: saline with Tween-80 101 % of control | dose: 400.0 mg/kg/injection, schedule: Q04DX002 (ip), vehicle: saline with Tween-80 105 % of control

N#Cc1cn(C2OC(CO)C(O)C2O)c2nc(NN)nc(N)c12 (stereo not given)
inactive: dose: 1.56 mg/kg/injection, schedule: Q01DX005 (ip), vehicle: water 105 % of control | dose: 3.13 mg/kg/injection, schedule: Q01DX005 (ip), vehicle: water 105 % of control | [20] 107 % of control | [21] 108 % of control | [22] 110 % of control | [23] 121 % of control | dose: 100.0 mg/kg/injection, schedule: Q01DX005 (ip), vehicle: water 96 % of control

CCCCCCN(CCCCCC)CC(O)c1cccc2c1cc(Cl)c1ccccc12 (stereo not given)
inactive: [15] 96 % of control | [16] 100 % of control | [18] 95 % of control | [17] 98 % of control | [19] 101 % of control
